Counter-ions that a name gives are not always drawn. Like-named read-outs stand apart in the source and are kept apart here.

The record followed here is US11352340B2, “Pyridine and pyridimine compounds as PI3K-gamma inhibitors” (Incyte Corporation, priority 2016, dated 2022).

Assay [1] concerns Phosphorylated Ribosomal Protein S6 (RPS6) in THP-1 cells. The assay is described as follows: THP-1 RPS6 ELISA Assay. Format: cell-based, Human. The settings on record: MCP-1 stimulated, phospho-RPS6 ELISA, read-out: THP p-RPS6 ELISA IC50. A digest of the protocol:
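Serum-starved THP-1 cells (2×10^5/well, RPMI) preincubated with compound 2 h at 37° C, then stimulated with 10 nM MCP-1 for 15 min. Lysates assayed by phospho-RPS6 ELISA, absorbance 450 nm (540 nm correction); IC50 from percent inhibition versus log concentration.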
For orientation: ELISA stands for enzyme-linked immunosorbent assay.

Assay [2] addresses PI3Kγ (p110γ) Recombinant Human Protein (Homo sapiens (Human), UniProt P48736). Briefly: PI3K-γ Scintillation Proximity Assay. Format: biochemical. The settings on record: read-out: PI3K-gamma SPA IC50. An outline of the steps:
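Recombinant human p110γ (13 nM) with 20 μM PIP2 and 2 μM ATP plus 0.5 μCi [γ-33P]ATP in 20 mM MOPS pH 6.7, 10 mM MgCl2, 5 mM DTT, 0.03% CHAPS, 2% DMSO, 120 min at room temperature. Product captured on WGA SPA beads and counted; IC50 fitted from % of solvent control versus log concentration.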

Assay [3] addresses PI3Kδ (p110δ/p85α) Recombinant Human Protein (Homo sapiens (Human), UniProt O00329). Briefly: PI3Kδ Scintillation Proximity Assay. Format: biochemical. The settings on record: read-out: PI3K-delta SPA IC50. An outline of the steps:
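Kinase reaction run at room temperature in 20 mM MOPS pH 6.7, 10 mM MgCl2, 5 mM DTT, 0.03% CHAPS with 20 μM PIP2, 2 μM ATP plus [γ-33P]ATP, 3.4 nM enzyme, 2% DMSO; 120 min. Quenched with WGA SPA beads/EDTA, counted by scintillation; IC50 from % solvent-control activity vs log concentration.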
For orientation: SPA uses beads or plates that emit light when radiolabelled molecules are held near them.

Chain of PI3Kγ (p110γ) Recombinant Human Protein (P48736 whole entry): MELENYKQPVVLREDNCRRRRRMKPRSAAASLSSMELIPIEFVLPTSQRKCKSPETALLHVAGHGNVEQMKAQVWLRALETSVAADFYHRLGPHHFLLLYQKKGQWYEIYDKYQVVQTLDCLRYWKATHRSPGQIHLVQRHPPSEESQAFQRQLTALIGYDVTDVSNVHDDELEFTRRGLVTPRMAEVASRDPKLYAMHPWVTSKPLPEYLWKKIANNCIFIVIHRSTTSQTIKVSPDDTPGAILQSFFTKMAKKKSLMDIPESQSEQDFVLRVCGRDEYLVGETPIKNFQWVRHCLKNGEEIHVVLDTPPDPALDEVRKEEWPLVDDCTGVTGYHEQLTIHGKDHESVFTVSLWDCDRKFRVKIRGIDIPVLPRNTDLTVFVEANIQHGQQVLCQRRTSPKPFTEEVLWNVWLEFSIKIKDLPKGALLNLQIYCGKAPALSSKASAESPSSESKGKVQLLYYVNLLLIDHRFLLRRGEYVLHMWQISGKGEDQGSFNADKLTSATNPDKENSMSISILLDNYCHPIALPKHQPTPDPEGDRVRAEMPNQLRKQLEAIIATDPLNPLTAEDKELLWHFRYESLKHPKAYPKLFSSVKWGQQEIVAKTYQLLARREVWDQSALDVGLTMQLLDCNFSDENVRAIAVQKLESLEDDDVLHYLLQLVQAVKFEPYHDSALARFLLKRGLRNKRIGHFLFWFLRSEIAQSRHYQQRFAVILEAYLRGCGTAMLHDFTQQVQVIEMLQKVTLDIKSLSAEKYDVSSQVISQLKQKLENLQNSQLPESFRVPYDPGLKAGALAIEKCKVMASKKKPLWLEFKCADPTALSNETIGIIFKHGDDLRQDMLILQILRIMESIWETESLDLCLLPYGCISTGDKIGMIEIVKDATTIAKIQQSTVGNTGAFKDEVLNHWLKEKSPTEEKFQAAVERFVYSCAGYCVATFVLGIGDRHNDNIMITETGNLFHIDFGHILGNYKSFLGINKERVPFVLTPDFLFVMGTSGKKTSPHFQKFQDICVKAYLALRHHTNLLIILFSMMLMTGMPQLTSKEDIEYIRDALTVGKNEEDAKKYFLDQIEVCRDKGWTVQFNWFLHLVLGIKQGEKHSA
Chain of PI3Kδ (p110δ/p85α) Recombinant Human Protein (O00329 whole entry): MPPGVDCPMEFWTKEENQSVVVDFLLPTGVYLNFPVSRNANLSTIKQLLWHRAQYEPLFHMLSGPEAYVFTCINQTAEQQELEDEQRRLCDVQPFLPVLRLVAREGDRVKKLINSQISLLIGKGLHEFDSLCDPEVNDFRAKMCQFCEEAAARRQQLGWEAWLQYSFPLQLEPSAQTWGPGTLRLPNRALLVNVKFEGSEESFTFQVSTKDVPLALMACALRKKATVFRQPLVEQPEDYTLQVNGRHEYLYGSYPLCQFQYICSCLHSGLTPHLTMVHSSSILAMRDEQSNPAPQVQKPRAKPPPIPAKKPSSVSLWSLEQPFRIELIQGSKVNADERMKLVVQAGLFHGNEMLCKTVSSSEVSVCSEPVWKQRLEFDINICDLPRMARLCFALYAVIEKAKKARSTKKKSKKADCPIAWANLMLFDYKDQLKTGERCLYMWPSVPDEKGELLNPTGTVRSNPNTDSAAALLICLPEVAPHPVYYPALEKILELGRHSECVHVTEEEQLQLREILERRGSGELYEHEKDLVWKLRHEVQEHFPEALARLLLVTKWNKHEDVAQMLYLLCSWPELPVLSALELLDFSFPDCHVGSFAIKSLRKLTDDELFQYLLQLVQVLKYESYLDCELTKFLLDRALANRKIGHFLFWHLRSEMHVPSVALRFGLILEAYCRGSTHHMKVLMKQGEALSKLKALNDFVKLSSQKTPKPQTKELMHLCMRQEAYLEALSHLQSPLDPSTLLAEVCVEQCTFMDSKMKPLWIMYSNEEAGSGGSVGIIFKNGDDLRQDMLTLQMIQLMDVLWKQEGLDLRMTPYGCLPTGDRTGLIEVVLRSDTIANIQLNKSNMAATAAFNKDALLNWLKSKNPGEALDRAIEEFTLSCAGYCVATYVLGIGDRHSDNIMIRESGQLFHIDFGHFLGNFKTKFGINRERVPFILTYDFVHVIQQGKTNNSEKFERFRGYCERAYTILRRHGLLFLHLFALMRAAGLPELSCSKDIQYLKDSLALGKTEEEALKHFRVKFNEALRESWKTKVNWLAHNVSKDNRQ
Chain of PI3Kδ (p110δ/p85α) Recombinant Human Protein (P27986 whole entry partner): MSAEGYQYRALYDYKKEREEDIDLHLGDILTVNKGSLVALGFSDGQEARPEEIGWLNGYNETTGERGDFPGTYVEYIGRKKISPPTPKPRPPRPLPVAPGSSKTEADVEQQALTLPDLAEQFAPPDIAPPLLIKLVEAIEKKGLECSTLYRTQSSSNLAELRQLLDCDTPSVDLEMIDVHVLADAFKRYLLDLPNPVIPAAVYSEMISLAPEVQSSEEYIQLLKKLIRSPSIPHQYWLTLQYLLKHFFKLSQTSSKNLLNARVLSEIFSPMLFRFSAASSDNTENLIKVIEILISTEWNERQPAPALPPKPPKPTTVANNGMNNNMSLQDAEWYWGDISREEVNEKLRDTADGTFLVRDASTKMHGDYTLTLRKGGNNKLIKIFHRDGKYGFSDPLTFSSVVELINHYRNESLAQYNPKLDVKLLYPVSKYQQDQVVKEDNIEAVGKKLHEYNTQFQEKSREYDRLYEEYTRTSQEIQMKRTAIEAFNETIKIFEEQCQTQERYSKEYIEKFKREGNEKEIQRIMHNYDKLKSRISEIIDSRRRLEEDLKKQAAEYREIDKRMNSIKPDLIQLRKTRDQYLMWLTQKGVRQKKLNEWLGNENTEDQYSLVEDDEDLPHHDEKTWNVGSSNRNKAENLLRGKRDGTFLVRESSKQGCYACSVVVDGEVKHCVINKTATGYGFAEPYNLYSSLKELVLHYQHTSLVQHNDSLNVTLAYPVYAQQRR

With `Cc1nc(-c2cc(-c3cncc(C(=O)N4CCC(CCO)C4)c3)ccn2)[nH]c1C` (racemic) [Example 169, (2′-(4,5-Dimethyl-1H-imidazol-2-yl)-3,4′-bipyridin-5-yl)(3-(2-hydroxyethyl)pyrrolidin-1-yl)methanone], the IC50 in assay [1] (Homo sapiens) was 1000 to 5000 nM; in assay [2], ≤ 100 nM; in assay [3], ≤ 50 nM.

Regarding `Cc1c[nH]c(-c2cc(-c3cncc(S(=O)(=O)N[C@H]4CC[C@H](O)CC4)c3)ccn2)n1` [Example 299, N-((1r,4r)-4-Hydroxycyclohexyl)-2′-(4-methyl-1H-imidazol-2-yl)-[3,4′-bipyridine]-5-sulfonamide trifluoroacetate salt], the IC50 in assay [1] is ≤ 300 nM; in assay [2], ≤ 50 nM; in assay [3] it was ≤ 50 nM.

For the molecule `Cc1[nH]c(-c2cc(-c3cncc(N4CCOCC4)c3)ccn2)nc1CCO` [Example 123, 2-[5-Methyl-2-(5-morpholin-4-yl-3,4′-bipyridin-2′-yl)-1H-imidazol-4-yl]ethanol], the IC50 in assay [1] (Homo sapiens) is ≤ 300 nM; in assay [2], ≤ 50 nM; in assay [3], ≤ 50 nM.

For `Cc1nc(-c2cc(C3=CCCN(S(=O)(=O)c4ccccc4)C3)ccn2)[nH]c1C` [Example 214, 2′-(4,5-Dimethyl-1H-imidazol-2-yl)-1-(phenylsulfonyl)-1,2,5,6-tetrahydro-3,4′-bipyridine Trifluoroacetate Salt], the IC50 in assay [1] (Homo sapiens) is > 5000 nM; in assay [2], ≤ 50 nM; in assay [3], ≤ 500 nM.

With `Cc1[nH]c(-c2cc(-c3cncc(N4CCOCC4)c3)ccn2)nc1C(=O)N1CC(C(F)(F)F)C1` [Example 262, 2′-(5-Methyl-4-{[3-(trifluoromethyl)azetidin-1-yl]carbonyl}-1H-imidazol-2-yl)-5-morpholin-4-yl-3,4′-bipyridine], the IC50 in assay [1] (Homo sapiens) was 300 to 1000 nM; in assay [2] it was ≤ 50 nM; in assay [3] it was ≤ 50 nM.

As to `Cc1nc(-c2cc(-c3cncc(C(=O)N(C)CCO)c3)ccn2)[nH]c1C` [Example 201, 2′-(4,5-Dimethyl-1H-imidazol-2-yl)-N-(2-hydroxyethyl)-N-methyl-3,4′-bipyridine-5-carboxamide trifluoroacetate salt], the IC50 in assay [1] (Homo sapiens) is 300 to 1000 nM; in assay [2], ≤ 50 nM; in assay [3] it was ≤ 500 nM.

Regarding `Cc1nc(-c2cc(-c3cncc(NCC4CCOC4)c3)ccn2)[nH]c1C` (racemic) [Example 145B, 2′-(4,5-Dimethyl-1H-imidazol-2-yl)-N-(tetrahydrofuran-3-ylmethyl)-3,4′-bipyridin-5-amine], the IC50 in assay [1] (Homo sapiens) is ≤ 300 nM; in assay [2] it was ≤ 50 nM; in assay [3], ≤ 50 nM.

Consider `CCNc1ncc(-c2cc(-c3cncc(OC)c3)ccn2)[nH]1` [Example 62, N-Ethyl-5-(5-methoxy-3,4′-bipyridin-2′-yl)-1H-imidazol-2-amine Trifluoroacetate Salt], for which the IC50 in assay [1] (Homo sapiens) is > 5000 nM; in assay [2], ≤ 100 nM; in assay [3], > 500 nM.

As for `Cc1[nH]c(-c2cc(-c3cncc(S(C)(=O)=O)c3)ccn2)nc1C(F)F` [Example 121, 2′-[4-(Difluoromethyl)-5-methyl-1H-imidazol-2-yl]-5-(methylsulfonyl)-3,4′-bipyridine Trifluoroacetate Salt], the IC50 in assay [1] (Homo sapiens) was ≤ 300 nM; in assay [2] it was ≤ 50 nM; in assay [3], ≤ 50 nM.

In the case of `COc1cncc(-c2ccnc(-c3nc4ccccc4[nH]3)n2)c1` [Example 94, 2-[4-(5-Methoxypyridin-3-yl)pyrimidin-2-yl]-1H-benzimidazole Trifluoroacetate Salt], the results for the IC50 in assay [1] (Homo sapiens), in assay [2] and in assay [3] were 1000 to 5000 nM, ≤ 500 nM and > 500 nM, respectively.

In the case of `COCC(=O)Nc1cncc(-c2ccnc(-c3ncc(-c4ccccc4)[nH]3)c2)c1` [Example 131, 2-Methoxy-N-[2′-(5-phenyl-1H-imidazol-2-yl)-3,4′-bipyridin-5-yl]acetamide Trifluoroacetate Salt], the results for the IC50 in assay [1] (Homo sapiens), in assay [2] and in assay [3] were > 5000 nM, ≤ 50 nM and ≤ 50 nM, respectively.

As to `c1ccc(-c2cnc(-c3cc(-c4cncc(N5CCOCC5)c4)ccn3)[nH]2)cc1` [Example 18, 4-(2′-(5-Phenyl-1H-imidazol-2-yl)-3,4′-bipyridin-5-yl)morpholine trifluoroacetate salt], the IC50 was 300 to 1000 nM in assay [1] (Homo sapiens), ≤ 50 nM in assay [2] and ≤ 50 nM in assay [3].

`CNC(=O)c1nc(-c2cc(-c3cncc(S(C)(=O)=O)c3)ccn2)[nH]c1C` [Example 250, N,5-Dimethyl-2-[5-(methylsulfonyl)-3,4′-bipyridin-2′-yl]-lH-imidazole-4-carboxamide trifluoroacetate salt]: the IC50 was 300 to 1000 nM in assay [1], ≤ 50 nM in assay [2] and ≤ 50 nM in assay [3].

Turning to `CCc1[nH]c(-c2cc(-c3cncc(S(C)(=O)=O)c3)ccn2)nc1C` [Example 117, 2′-(5-Ethyl-4-methyl-1H-imidazol-2-yl)-5-(methylsulfonyl)-3,4′-bipyridine], the IC50 in assay [1] (Homo sapiens) was ≤ 300 nM; in assay [2], ≤ 50 nM; in assay [3], ≤ 50 nM.

Turning to `Cc1[nH]c(-c2cc(-c3cncc(N4CCOCC4)c3)ccn2)nc1C(=O)NC1C2CC3CC(C2)CC1C3` (stereo not drawn) [Example 278, N-2-Adamantyl-5-methyl-2-(5-morpholin-4-yl-3,4′-bipyridin-2′-yl)-1H-imidazole-4-carboxamide trifluoroacetate salt], the IC50 was 300 to 1000 nM in assay [1] (Homo sapiens), ≤ 50 nM in assay [2] and ≤ 50 nM in assay [3].

`Cc1cnc(-c2cc(-c3cncc(S(=O)(=O)N[C@H]4CC[C@](C)(O)CC4)c3)ccn2)[nH]1` [Example 298, N-((1r,4r)-4-Hydroxy-4-methylcyclohexyl)-2′-(4-methyl-1H-imidazol-2-yl)-[3,4′-bipyridine]-5-sulfonamide Trifluoroacetate Salt]: the IC50 was ≤ 300 nM in assay [1] (Homo sapiens), ≤ 50 nM in assay [2] and ≤ 50 nM in assay [3].

For the molecule `Cc1[nH]c(-c2cc(-c3cncc(N4CCOCC4)c3)ccn2)nc1C(=O)NC1Cc2ccccc2C1` [Example 282, N-(2,3-Dihydro-1H-inden-2-yl)-5-methyl-2-(5-morpholin-4-yl-3,4′-bipyridin-2′-yl)-1H-imidazole-4-carboxamide trifluoroacetate salt], the IC50 in assay [1] (Homo sapiens) is 300 to 1000 nM; in assay [2] it was ≤ 50 nM; in assay [3], ≤ 50 nM.

As for `Cc1[nH]c(-c2cc(-c3cncc(N4CCOCC4)c3)ccn2)nc1C(=O)N[C@@H]1CCOC1` [Example 270, 5-Methyl-2-(5-morpholin-4-yl-3,4′-bipyridin-2′-yl)-N-[(3R)-tetrahydrofuran-3-yl]-1H-imidazole-4-carboxamide trifluoroacetate salt], the IC50 was 300 to 1000 nM in assay [1] (Homo sapiens), ≤ 50 nM in assay [2] and ≤ 50 nM in assay [3].

For `COC[C@@H](NC(=O)c1nc(-c2cc(-c3cncc(N4CCOCC4)c3)ccn2)[nH]c1C)c1ccccc1` [Example 276, N-[(1S)-2-Methoxy-1-phenylethyl]-5-methyl-2-(5-morpholin-4-yl-3,4′-bipyridin-2′-yl) 1H-imidazole-4-carboxamide trifluoroacetate salt], the results for the IC50 in assay [1], in assay [2] and in assay [3] were ≤ 300 nM, ≤ 100 nM and ≤ 50 nM, respectively.

Regarding `Cc1nc(-c2cc(-c3cncc(C(=O)N(C)Cc4ccccc4)c3)ccn2)[nH]c1C` [Example 193, N-Benzyl-2′-(4,5-dimethyl-1H-imidazol-2-yl)-N-methyl-3,4′-bipyridine-5-carboxamide trifluoroacetate salt], the IC50 is ≤ 300 nM in assay [1] (Homo sapiens), ≤ 50 nM in assay [2] and ≤ 50 nM in assay [3].

Consider `c1ccc(-c2cnc(-c3cc(-c4cncc(NC5CCOCC5)c4)ccn3)[nH]2)cc1` [Example 142, 2′-(5-Phenyl-1H-imidazol-2-yl)-N-(tetrahydro-2H-pyran-4-yl)-3,4′-bipyridin-5-amine trifluoroacetate salt], for which the values for the IC50 in assay [1] (Homo sapiens), in assay [2] and in assay [3] were > 5000 nM, ≤ 50 nM and ≤ 50 nM, respectively.

Turning to `CS(=O)(=O)c1cncc(-c2ccnc(-c3ncc(C(F)(F)F)[nH]3)c2)c1` [Example 109, 5-(Methylsulfonyl)-2′-(5-(trifluoromethyl)-1H-imidazol-2-yl)-3,4′-bipyridine trifluoroacetate salt], the IC50 is 300 to 1000 nM in assay [1] (Homo sapiens), ≤ 50 nM in assay [2] and ≤ 50 nM in assay [3].

As to `N#Cc1ccc(Cn2cc(-c3ccnc(-c4ncc(-c5ccccc5)[nH]4)c3)cn2)cc1` [Example 43, 4-((4-(2-(5-Phenyl-1H-imidazol-2-yl)pyridin-4-yl)-1H-pyrazol-1-yl)methyl)benzonitrile trifluoroacetate salt], the IC50 in assay [1] (Homo sapiens) was > 5000 nM; in assay [2], ≤ 500 nM; in assay [3] it was > 500 nM.

`Cc1nc(-c2cc(-c3cncc(C(=O)N4CCC5(CCOCC5)CC4)c3)ccn2)[nH]c1C` [Example 156, (2′-(4,5-Dimethyl-1H-imidazol-2-yl)-3,4′-bipyridin-5-yl)(3-oxa-9-azaspiro[5.5]undecan-9-yl)methanone trifluoroacetate salt]: the IC50 in assay [1] (Homo sapiens) was 1000 to 5000 nM; in assay [2], ≤ 50 nM; in assay [3], ≤ 50 nM.
